Values quoted from earlier work as cited in patent publication US20050158775A1, “Novel plamid DNA comprising reoprter gene DNA and use of the same” (priority 1997, published 2005).

System: PPAR γ
Conditions: at a concentration of 10 μM or less; cited from earlier work

SMILES: CCCCC[C@H](O)/C=C/[C@@H]1[C@H]2C/C(=C/CCCC(=O)O)C[C@H]2C[C@H]1O [carbacyclin]
- PPAR γ agonist activity: does not show PPAR γ agonist activity
